Measurements: patent US8853246B2 (Dow AgroSciences LLC, priority 2009, dated 2014)

Assays:
[1] = test system: Green Peach Aphid (Myzus Persicae); assay: Insecticidal test for green peach aphid in foliar spray assay (col. MYZUPE); type: in vivo; conditions: green peach aphid; for pest or weed control at 200 ppm: Myzus persicae, 72 h, read-out: MYZUPE 200 ppm (Corrected % Control, rating)
Procedure: (§1) The compounds were tested against cotton aphid, green peach aphid, and sweet potato whitefly using procedures described in the following examples and reported in Table 2.
(§2) In each case of Table 2, the rating scale is as follows at 200 ppm.
Insecticidal Test for Green Peach Aphid (Myzus Persicae) in Foliar Spray Assay
Cabbage seedlings grown in 3-inch pots, with 2-3 small (3-5 cm) true leaves, were used as test substrate. The seedlings were infested with 20-50 green peach aphids (wingless adult and nymph) one day prior to chemical application. Four pots with individual seedlings were used for each treatment. Compounds (2 mg) were dissolved in 2 mL of acetone/methanol (1:1) solvent, forming stock solutions of 1000 ppm. The stock solutions were diluted 5× with 0.025% Tween 20 in H2O to obtain a test solution at 200 ppm. A hand-held Devilbiss sprayer was used for spraying a solution to both sides of cabbage leaves until runoff. Reference plants (solvent check) were sprayed with the diluent only. Treated plants were held in a holding room for three days at approximately 25° C. and 40% relative humidity (RH) prior to grading. Evaluation was conducted by counting the number of live aphids per plant under a microscope. Corrected % Control=100*(X−Y)/X • where X=No. of live aphids on solvent check plants • Y=No. of live aphids on treated plants

[2] = test system: Sweetpotato Whitefly-Crawler (Bemisia Tabaci); assay: Insecticidal test for sweetpotato whitefly-crawler in foliar spray assay (col. BEMITA); type: in vivo; conditions: sweetpotato whitefly-crawler; for pest or weed control at 200 ppm: Bemisia tabaci, read-out: BEMITA 200 ppm (Corrected % Control, rating)
Procedure: as §1, §2
Insecticidal Test for Sweetpotato Whitefly-Crawler (Bemisia Tabaci) in Foliar Spray Assay
Cotton plants grown in 3-inch pots, with 1 small (3-5 cm) true leaf, were used as test substrate. The plants were placed in a room with whitefly adults. Adults were allowed to deposit eggs for 2-3 days. After a 2-3 day egg-laying period, plants were taken from the adult whitefly room. Adults were blown off leaves using a hand-held Devilbiss sprayer (23 psi). Plants with egg infestation (100-300 eggs per plant) were placed in a holding room for 5-6 days at 82° F. and 50% RH for egg hatch and crawler stage to develop. Four cotton plants were used for each treatment. Compounds (2 mg) were dissolved in 1 mL of acetone solvent, forming stock solutions of 2000 ppm. The stock solutions were diluted 10× with 0.025% Tween 20 in H2O to obtain a test solution at 200 ppm. A hand-held Devilbiss sprayer was used for spraying a solution to both sides of cotton leaf until runoff. Reference plants (solvent check) were sprayed with the diluent only. Treated plants were held in a holding room for 8-9 days at approximately 82° F. and 50% RH prior to grading. Evaluation was conducted by counting the number of live nymphs per plant under a microscope. Insecticidal activity was measured by using Abbott's correction formula and presented in Table 2 (see col. “BEMITA”): Corrected % Control=100*(X−Y)/X • where X=No. of live nymphs on solvent check plants • Y=No. of live nymphs on treated plants Pesticidally Acceptable Acid Addition Salts, Salt Derivatives, Solvates, Ester Derivatives, Polymorphs, Isotopes and Radionuclides

Structure (SMILES)	pest or weed control at 200 ppm [1]	pest or weed control at 200 ppm [2]	MYZUPE 200 ppm (Corrected % Control, rating) [1]	BEMITA 200 ppm (Corrected % Control, rating) [2]
CSCC(C)C(=O)Nc1sc(-c2cncc(C)c2)nc1C (centres unmarked) [Compound 171, 2-methyl-N-[4-methyl-2-(5-methyl-pyridin-3-yl)-thiazol-5-yl]-3-methylsulfanyl-propionamide]	80 to 100%	< 80%		
CSCC(C)C(=O)N(C(=O)C(C)CSC)c1sc(-c2cccnc2)nc1C (centres unmarked) [Compound 173]	80 to 100%	80 to 100%		
CN(C(=O)CC[S+](C)[O-])c1sc(-c2cccnc2)nc1Cl (centres unmarked) [Compound 174]	80 to 100%	80 to 100%		
COc1cncc(-c2nc(C)c(N(C(=O)OC(C)(C)C)C(=O)C(C)CSC)s2)c1 (centres unmarked) [Compound 176]	< 80%	< 80%		
CSCC(C)C(=S)Nc1sc(-c2cccnc2)nc1C (centres unmarked) [Compound 180, 2-methyl-N-(4-methyl-2-pyridin-3-yl-thiazol-5-yl)-3-methylsulfanyl-thiopropionamide]	80 to 100%	80 to 100%		
CSCC(C)C(=O)N(C(=O)C(C)C)c1sc(-c2cccnc2)nc1C (centres unmarked) [Compound 183]	80 to 100%	80 to 100%		
CSCC(C)C(=O)N(C(C)=O)c1sc(-c2cccnc2)nc1C (centres unmarked) [Compound 184]	80 to 100%	80 to 100%		
CSCCC(=O)N(C(=O)CCSC)c1sc(-c2cncc(F)c2)nc1C [Compound 185]	80 to 100%	80 to 100%		
CSCC(C)C(=O)N(C(=O)C(C)CSC)c1sc(-c2cncc(F)c2)nc1C (centres unmarked) [Compound 188]	80 to 100%	80 to 100%		
COC(=O)CCC(=O)N(C(=O)C(C)CSC)c1sc(-c2cccnc2)nc1C (centres unmarked) [Compound 189]	80 to 100%	80 to 100%		
Cc1nc(-c2cncc(F)c2)sc1N(C)C(=O)C(C)CSCc1ccc(Cl)cc1 (centres unmarked) [Compound 190]	80 to 100%	80 to 100%		
CCCC(C)(C)OC(=O)Nc1sc(-c2cccnc2)nc1C [Compound 192]	80 to 100%	80 to 100%		
Cc1nc(-c2cccnc2)sc1N(C)C(=O)[C@H](C)NC(=O)OC(C)(C)C [Compound 194]	80 to 100%	80 to 100%		
CSCC(C)C(=O)N(C(=O)C(C)(C)CSC)c1sc(-c2cccnc2)nc1C (centres unmarked) [Compound 195]	80 to 100%	80 to 100%		
COCN(C(=O)C(C)CSC)c1sc(-c2cccnc2)nc1C (centres unmarked) [Compound 196]	80 to 100%	80 to 100%		
Cc1nc(-c2cccnc2)sc1NC(=O)OC1(C)CCCCC1 [Compound 198]	80 to 100%	80 to 100%		
CSCC(C)C(=O)N(C(=O)C(C)C)c1sc(-c2cncc(F)c2)nc1C (centres unmarked) [Compound 200]	80 to 100%	80 to 100%		
CSCC(C)C(=O)N(COC(=O)c1ccccc1)c1sc(-c2cccnc2)nc1C (centres unmarked) [Compound 203, Benzoic acid [(2-methyl-3-methylsulfanyl-propionyl)-(4-methyl-2-pyridin-3-yl-thiazol-5-yl)-amino]-methyl ester]	80 to 100%	80 to 100%		
C=CC(=O)N(C(=O)C(C)CSC)c1sc(-c2cccnc2)nc1C (centres unmarked) [Compound 204]	80 to 100%	< 80%		
Cc1nc(-c2cccnc2)sc1N(C)C(=O)C1CCSC1 (centres unmarked) [Compound 206]	80 to 100%	80 to 100%		
Cc1nc(-c2cccnc2)sc1N1CCCC1=O [Compound 211]	80 to 100%	80 to 100%		
CSC(C)CC(=O)N(C)c1sc(-c2cncc(F)c2)nc1C (centres unmarked) [Compound 213]	80 to 100%	80 to 100%		
Cc1nc(-c2cncc(F)c2)sc1N(C)C(=O)C1CCSC1 (centres unmarked) [Compound 214]	80 to 100%	80 to 100%		
CSC(C)C(C)C(=O)N(C)c1sc(-c2cncc(F)c2)nc1C (centres unmarked) [Compound 215]	80 to 100%	80 to 100%		
CSCC(C)C(=O)N(Cc1ccccc1)c1sc(-c2cccnc2)nc1C (centres unmarked) [Compound 221]	80 to 100%	< 80%		

Structure (SMILES)	pest or weed control at 200 ppm [1]	pest or weed control at 200 ppm [2]	MYZUPE 200 ppm (Corrected % Control, rating) [1]	BEMITA 200 ppm (Corrected % Control, rating) [2]
CSCC(C)C(=O)N(c1sc(-c2cccnc2)nc1C)C(C)C (centres unmarked) [Compound 222]	80 to 100%	< 80%		
CSCC(C)C(=O)N(CC(C)C)c1sc(-c2cccnc2)nc1C (centres unmarked) [Compound 223]	80 to 100%	80 to 100%		
C=CCSCC(C)C(=O)Nc1sc(-c2cccnc2)nc1C (centres unmarked) [Compound 224]	80 to 100%	80 to 100%		
CC(C)C(=O)N(C)c1sc(-c2cccnc2)nc1Cl [Compound 231]	80 to 100%	80 to 100%		
CCOC(=O)C(C)C(=O)N(C)c1sc(-c2cccnc2)nc1C (centres unmarked) [Compound 232]	< 80%	80 to 100%		
CCN(C(=O)CCSC)c1sc(-c2cccnc2)nc1C [Compound 236]	80 to 100%	80 to 100%		
CCN(C(=O)C(C)(C)CSC)c1sc(-c2cccnc2)nc1C [Compound 237]	80 to 100%	80 to 100%		
CCN(C(=O)CCS(C)(=O)=O)c1sc(-c2cccnc2)nc1C [Compound 239]			A (80-100)	A (80-100)
CN(C(=O)CCS(C)(=O)=O)c1sc(-c2cccnc2)nc1Cl [Compound 246]	80 to 100%	80 to 100%		
CSC(C)CC(=O)N(C)c1sc(-c2cccnc2)nc1Cl (centres unmarked) [Compound 248]	80 to 100%	80 to 100%		
COC(=O)CCC(=O)N(C)c1sc(-c2cccnc2)nc1C [Compound 252]	80 to 100%	80 to 100%		
CCN(C(=O)CC[S+](C)[O-])c1sc(-c2cncc(F)c2)nc1C (centres unmarked) [Compound 256]	80 to 100%	80 to 100%		
CCN(C(=O)CCS(C)(=O)=O)c1sc(-c2cncc(F)c2)nc1C [Compound 257]			A (80-100)	A (80-100)
CCN(C(=O)C(C)C[S+](C)[O-])c1sc(-c2cncc(F)c2)nc1C (centres unmarked) [Compound 258]	80 to 100%	80 to 100%		
CCN(C(=O)C(C)CS(C)(=O)=O)c1sc(-c2cncc(F)c2)nc1C (centres unmarked) [Compound 259]			A (80-100)	A (80-100)
CCN(C(=O)C(C)(C)C[S+](C)[O-])c1sc(-c2cncc(F)c2)nc1C (centres unmarked) [Compound 260]	80 to 100%	80 to 100%		
CCN(C(=O)C(C)(C)CS(C)(=O)=O)c1sc(-c2cncc(F)c2)nc1C [Compound 261]			A (80-100)	A (80-100)
CSCCC(=O)N(C)c1sc(-c2cncc(F)c2)nc1Cl [Compound 266]	80 to 100%	80 to 100%		
CCN(C(=O)OC(C)(C)C)c1sc(-c2cncc(F)c2)nc1Cl [Compound 267]	80 to 100%	80 to 100%		
CN(C(=O)C(C)(C)C[S+](C)[O-])c1sc(-c2cccnc2)nc1Cl (centres unmarked) [Compound 269]	80 to 100%	80 to 100%		
CN(C(=O)CCS(C)(=O)=O)c1sc(-c2cncc(F)c2)nc1Cl [Compound 273]	80 to 100%	80 to 100%		
CCN(C(=O)C(C)C)c1sc(-c2cncc(F)c2)nc1Cl [Compound 275]	80 to 100%	80 to 100%		
Cc1nc(-c2cccnc2)sc1N(C)C(=O)CNC(=O)OC(C)(C)C [Compound 276]	80 to 100%	< 80%		
Cc1nc(-c2cccnc2)sc1N(C)C(=O)[C@H](Cc1ccccc1)NC(=O)OC(C)(C)C [Compound 280]	< 80%	< 80%		
